Measured values published in patent publication US10065990B2, “Cyclic peptide compound, and preparation method, pharmaceutical composition and use thereof” (HANGZHOU GUANYU BIO-MEDICAL CO., LTD, priority 2013, dated 2018).

Columns and labels:
[1] = biological target: T1, HDAC8 (Homo sapiens, UniProt Q9BY41); assay: HDAC biochemical activity measurement (fluorescent substrate deacetylation); conditions: 37° C. 30 minutes
T1 sequence (Q9BY41 1-377): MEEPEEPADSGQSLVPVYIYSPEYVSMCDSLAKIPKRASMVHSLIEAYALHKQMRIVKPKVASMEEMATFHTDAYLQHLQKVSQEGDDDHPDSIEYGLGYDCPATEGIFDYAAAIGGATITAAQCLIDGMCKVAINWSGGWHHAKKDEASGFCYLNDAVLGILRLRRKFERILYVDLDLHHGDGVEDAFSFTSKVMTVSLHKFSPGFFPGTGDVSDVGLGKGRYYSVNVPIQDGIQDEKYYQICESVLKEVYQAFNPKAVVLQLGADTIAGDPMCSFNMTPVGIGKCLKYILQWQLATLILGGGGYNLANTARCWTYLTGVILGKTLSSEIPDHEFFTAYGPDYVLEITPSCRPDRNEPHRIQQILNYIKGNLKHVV
Procedure: (§2) The chemical activity of the compound is determined according to the degree of deacetylation inhibition of the HDAC enzyme. This experiment measured the degree of deacetylation related to tumor proliferation and metastasis of HDAC1, HDAC2, HDAC3, HDAC8, HDAC11 five subtypes HDAC enzymes. After the substrate containing an acetylated lysine side chain and HDAC enzyme are labeled with a fluorescent label, the fluorescent substrate is de acetyl. The fluorescent labeled substrate is cleaved by the enzyme, and the fluorescent substance is released, which generates 460 nm emission light under the excitation of 360 nm light.
(§3) HDAC substrate was diluted with reaction buffer to 200M (reaction concentration of 20M), the HDAC enzyme was diluted to the appropriate concentration, then added different concentrations of the test compounds and acted at 37° C. 30 minutes, and then added the same volume of 2-times concentration substrate developing solution (developer), incubated at room temperature for 15 minutes.

[2] = system: H1975 (non-small cell lung adenocarcinoma); assay: MTT cancer cell growth inhibition; assay type: cell-based; conditions: Homo sapiens, NCI-H1975, 72 h, MTT, 72 hours incubation, H1975 cells; read-out: GI50 H1975
How it was run: (§1)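 GI50 values come from MTT viability: after 72 h compound exposure (final 10^−5–10^−10 M, three wells each) of cells plated overnight at 1500/well in 10% FBS medium, MTT was given for 4 h. The DMSO-solubilised formazan was then measured at 570 nm.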

[3] = system: HCC827 (human non-small cell lung cancer cells); assay: MTT cancer cell growth inhibition; assay type: cell-based; conditions: Homo sapiens, HCC827, 72 h, MTT, 72 hours incubation, HCC827 cells; read-out: GI50 HCC827
How it was run: as §1

[4] = system: K562 (human leukemia cells); assay: MTT cancer cell growth inhibition; assay type: cell-based; conditions: Homo sapiens, K562, 72 h, MTT, 72 hours incubation, K562 cells; read-out: GI50 K562
How it was run: as §1

[5] = system: KBM-5 (human chronic myelogenous leukemia); assay: MTT cancer cell growth inhibition; assay type: cell-based; conditions: Homo sapiens, KBM5, 72 h, MTT, 72 hours incubation, KBM-5 cells; read-out: GI50 KBM-5
How it was run: as §1

[6] = system: N-87 (human gastric cancer cells); assay: MTT cancer cell growth inhibition; assay type: cell-based; conditions: Homo sapiens, 72 h, MTT, 72 hours incubation, N-87 cells; read-out: GI50 N-87
How it was run: as §1

[7] = system: PANC-1 (Pac-1, human pancreatic cancer cells); assay: MTT cancer cell growth inhibition; assay type: cell-based; conditions: Homo sapiens, PANC-1, 72 h, MTT, 72 hours incubation; read-out: GI50 PAN
How it was run: as §1

[8] = system: lncap (prostate cancer cells); assay: MTT cancer cell growth inhibition; assay type: cell-based; conditions: Homo sapiens, LNCaP, 72 h, MTT, 72 hours incubation; read-out: GI50 lnca
How it was run: as §1

[9] = biological target: HDAC3 (Homo sapiens, UniProt O15379); assay: HDAC biochemical activity measurement (fluorescent substrate deacetylation);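 further: fluorogenic acetyl-lysine substrate (20 µM) deacetylated by HDAC3, then developer added for 15 min at room temperature, release of fluorophore read at excitation 360 nm, emission 460 nm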; conditions: read-out: IC50 HDAC3; HDAC3; 37° C. 30 minutes
[10] = biological target: T2, HDAC11 (Homo sapiens, UniProt Q96DB2); assay: as above; conditions: read-out: IC50 HDAC11; HDAC11; 37° C. 30 minutes;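 further: HDAC11 enzyme acting on an acetyl-lysine fluorogenic substrate, then a developer frees the fluorophore, read at excitation 360 nm and emission 460 nm, IC50 over a compound dilution series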
T2 sequence (Q96DB2 1-347): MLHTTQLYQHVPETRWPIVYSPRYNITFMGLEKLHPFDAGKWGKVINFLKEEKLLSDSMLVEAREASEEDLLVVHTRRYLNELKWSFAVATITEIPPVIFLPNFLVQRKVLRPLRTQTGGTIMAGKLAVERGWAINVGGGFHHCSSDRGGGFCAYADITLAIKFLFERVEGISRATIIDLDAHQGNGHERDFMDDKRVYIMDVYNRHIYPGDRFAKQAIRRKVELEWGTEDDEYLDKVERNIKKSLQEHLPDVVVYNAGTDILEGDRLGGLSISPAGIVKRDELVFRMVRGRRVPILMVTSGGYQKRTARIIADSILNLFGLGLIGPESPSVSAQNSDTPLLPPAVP
Procedure: as §2, §3

Sequence of HDAC3 (O15379 whole entry, species assumed): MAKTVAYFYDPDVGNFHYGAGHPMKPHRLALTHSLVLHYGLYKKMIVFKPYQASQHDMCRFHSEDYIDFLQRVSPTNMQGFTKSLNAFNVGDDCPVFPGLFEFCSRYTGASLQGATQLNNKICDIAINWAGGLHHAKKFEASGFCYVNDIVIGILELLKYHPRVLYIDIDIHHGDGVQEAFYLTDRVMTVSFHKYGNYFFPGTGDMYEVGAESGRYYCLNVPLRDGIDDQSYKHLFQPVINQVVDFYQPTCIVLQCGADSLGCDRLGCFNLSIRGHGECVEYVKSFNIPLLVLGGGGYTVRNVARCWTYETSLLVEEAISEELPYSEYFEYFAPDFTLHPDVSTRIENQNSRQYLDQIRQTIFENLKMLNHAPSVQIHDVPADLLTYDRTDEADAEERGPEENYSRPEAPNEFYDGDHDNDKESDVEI
Sequence of HDAC3 (Q9Y618 395-489 partner limits assumed, species assumed): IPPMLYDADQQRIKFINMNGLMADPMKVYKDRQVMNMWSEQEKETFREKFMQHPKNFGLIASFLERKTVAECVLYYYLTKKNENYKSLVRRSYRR

SMILES | IC50 [1] | GI50 [2] | GI50 [3] | GI50 [4] | GI50 [5] | GI50 [6] | GI50 [7] | GI50 [8] | IC50 [9] | IC50 [10]
C/C=C1\NC(=O)c2cccc(n2)CNC(=O)C[C@@H](/C=C/CCSC(C)=O)OC(=O)[C@H](Cc2cccc3ccccc23)NC1=O [Compound 17] | 81 nM | 42 nM | 43 nM | 32 nM | 81 nM | 43 nM | 23300 nM | 530 nM | 69 nM | 97 nM
C/C=C1\NC(=O)c2cccc(n2)CNC(=O)C[C@@H](/C=C/CCSC(C)=O)OC(=O)[C@H](Cc2ccc(O)cc2)NC1=O [Compound 18] | 73 nM | 53 nM | 59 nM | 35 nM | 54 nM | 44 nM | 42100 nM | 10300 nM | 67 nM | 107 nM
C=C1NC(=O)c2cccc(n2)CNC(=O)C[C@@H](/C=C/CCSC(C)=O)OC(=O)[C@H](C(C)C)NC1=O [Compound 19] | 69 nM | 24 nM | 48 nM | 26 nM | 53 nM | 51 nM | 600 nM | 580 nM | 39 nM | 103 nM
CC(=O)SCC/C=C/[C@@H]1CC(=O)NCc2cccc(n2)C(=O)NC(=C(C)C)C(=O)N[C@@H](C(C)C)C(=O)O1 [Compound 20] | 65 nM | 35 nM | 52 nM | 24 nM | 61 nM | 62 nM | 10100 nM | 5100 nM | 45 nM | 87 nM
C/C=C1\NC(=O)c2nc(ccc2F)CNC(=O)C[C@@H](/C=C/CCSC(=O)CCCCCCC)OC(=O)[C@H](C(C)C)NC1=O [Compound 30] | 43 nM | 39 nM | 82 nM | 38 nM | 82 nM | 30 nM | 80 nM | 30 nM | 34 nM | 84 nM
C/C=C1\NC(=O)c2nc(ccc2F)CNC(=O)C[C@@H](/C=C/CCSC(=O)CCCCCC)OC(=O)[C@H](C(C)C)NC1=O [Compound 33] | 59 nM | 26 nM | 83 nM | 16 nM | 83 nM | 61 nM | 80 nM | 30 nM | 36 nM | 89 nM
C/C=C1\NC(=O)c2nc(ccc2F)CNC(=O)C[C@@H](/C=C/CCSC(=O)CCCCC)OC(=O)[C@H](C(C)C)NC1=O [Compound 36] | 35 nM | 19 nM | 62 nM | 29 nM | 61 nM | 39 nM | 60 nM | 40 nM | 37 nM | 85 nM
C/C=C1\NC(=O)c2cc(F)cc(n2)CNC(=O)C[C@@H](/C=C/CCSC(=O)CCCC)OC(=O)[C@H](C(C)C)NC1=O [Compound 40] | 45 nM | 43 nM | 74 nM | 41 nM | 79 nM | 71 nM | 70 nM | 30 nM | 42 nM | 96 nM
C/C=C1\NC(=O)c2cc(F)cc(n2)CNC(=O)C[C@@H](/C=C/CCSC(=O)CC)OC(=O)[C@H](C(C)C)NC1=O [Compound 46] | 35 nM | 37 nM | 52 nM | 35 nM | 91 nM | 43 nM | 50 nM | 30 nM | 25 nM | 82 nM
C/C=C1\NC(=O)c2cc(F)cc(n2)CNC(=O)C[C@@H](/C=C/CCSC=O)OC(=O)[C@H](C(C)C)NC1=O [Compound 52] | 53 nM | 61 nM | 91 nM | 27 nM | 88 nM | 53 nM | 90 nM | 30 nM | 38 nM | 107 nM
